# According to US20070225316A1, “Methods and compositions for treating schizophrenia” (priority 2006, published 2007):
# Where a name gives a salt, the structure may show the parent alone.
# System: NMDA receptors (NMDA-induced currents)
# Assay: Patch clamp (whole cell) registration of NMDA-induced currents in cultured rat hippocampus neurons
# Type: cell-based
# Details: for Change of the blocking effect of MK-801 on NMDA-induced currents after preliminary application of the substance: result in words
# Description: Experiments were carried out by the patch clamp method on freshly isolated neurons of a rat brain cortex or on cultured rat hippocampus neurons. Neurons for cultivation were obtained from the hippocampus of neonatal rats (1-2 days) by the method of trypsinization followed by pipetting. Cells suspended in culture medium were placed in 3 mL quantities into the wells of a 6-well planchette (Nunc) or into Petri dishes, in which glasses coated with poly-L-lysine had first been placed. The cell concentration as a rule was […]. The culture medium consisted of Eagle's minimum medium and a DME/F12 medium (1:1) supplemented with 10% calf serum, glutamine (2 mM), gentamycin (50 μg/mL), glucose (15 mM) and 20 mM KCl, with the pH brought to 7-7.4 using NaHCO3. Planchettes containing cultures were placed in a CO2— incubator at 37° C. and 100% humidity. Cytosine arabinoside 10-20 μL was added on the second to third day of cultivation. After 6-7 days of cultivation 1 mg/mL glucose was added to the medium, or the medium was exchanged, depending on the following experiment. The cultured hippocampus neurons were placed in a 0.4 mL working chamber. The working solution had the following composition (mM): NaCl 150.0, KCl 5.0, CaCl2 2.6, MgSO4×7H2O 2.0, HEPES 10.0, glucose 15.0, pH 7.36.
# Transmembrane currents produced by application of NMDA were registered by the patch clamp electrophysiological method in the whole cell configuration. Application of substances was done by the method of rapid superfusion. Currents were registered with the aid of borosilicate microelectrodes (resistance […]) filled with the following composition (mM): KCl 100.0, EGTA 11.0, CaCl2 1.0, MgCl2 1.0, HEPES 10.0, ATP 5.0 pH 7.2. An EPC-9 instrument (HEKA, Germany) was used for registration. Currents were recorded on the hard disk of a Pentium-IV PC using the pulse program, which is also purchased from HEKA. The results were analyzed with the aid of the Pulsefit program (HEKA).
"IC50 (cultured rat hippocampus neurons, range and average printed, dihydrochloride, read-out: IC50 of blocking effect on currents caused by application of NMDA) [µM]",SMILES,Blockade of NMDA-induced currents (%) (dimebon alone at 10 μM),"Blockade of NMDA-induced currents (%) by MK-801 after preliminary perfusion with dimebon (preliminary perfusion with dimebon 10 μM, then MK-801) [%]",Change of the blocking effect of MK-801 on NMDA-induced currents after preliminary application of the substance
7.7 ± 1.9,"Cc1ccc2c(c1)c1c(n2CCc2ccc(C)nc2)CCN(C)C1 [Dimebon, 2,8-dimethyl-5-[2-(6-methylpyridyl-3)ethyl]-2,3,4,5-tetrahydro-1H-pyrido[4,3-b]indole dihydrochloride]",By 50-70% at 10 μM,40±18,capable of reducing the blocking effect of MK-801
–,"N[C@H](CCCP(=O)(O)O)C(=O)O [D-AP5, D-2-amino-5-phosphonovaleric acid]",–,–,did not decrease the blocking effect of MK-801
